Where “and” joins values, the source holds several entries; their conditions need not be identical. Equal entries are not always repeated.
Experiments:
[1] = set-up: key: very good: 0.1 to 3.0; good: 3.01 to 50; average: 50.1 to 1000; poor: >1000; none: NEGATIVE; details: reference products of the interpretation scale; cited from earlier work
B16-F10 cells = assay: Assay of melanin in B16-F10 cells (colorimetric, α-MSH stimulated); format: cell-based, murine; details: Mus musculus, B16-F10, 72 h, 0.1 μM α-MSH, negative = inhibition, positive = stimulation, read-out: Melanin synthesis on B16
Method: It is a test to measure the synthesis of melanin by colorimetric assay on a murine melanoma cell line: line B16-F10. With this test it is possible to evaluate the depigmenting or propigmenting property of active ingredients.
The B16-F10 cells were seeded in 96-well plates in DMEM medium supplemented with FCS (foetal calf serum), and incubated 24 h at 37° C., 5% CO2. The cells were stimulated with 0.1 μM α-MSH (to stimulate melanin synthesis, the observed stimulation being about 150%) and treated 72 h with the active ingredients to be assayed. Each concentration of active ingredient was assayed at least in triplicate. Total melanin and intracellular melanin dissolved in lysis buffer were assayed by absorbance read-off at 405 nm. The total proteins were assayed in the lysate and the results expressed in mg melanin/mg proteins. Percentage activity was calculated as follows: […]
A negative value indicates inhibition of the melanin synthesis and translates depigmenting activity of the compound, whereas a positive value indicates induced melanin synthesis and translates a propigmenting property of the molecule.
• B16-F10 cell lines between P10 and P20 (murine melanocytes) (ATCC, CRL-6475); • reagents: DMEM without Phenol Red (GIBCOBRL, 118800-028), 200 mM glutamax-I supplement (GIBCOBRL, 35050-038), glucose (SIGMA, G7021), PBS (GIBCOBRL, 14190-094), foetal calf serum (Invitrogen, 10270-098), trypsin-EDTA (GIBCOBRL, 25300-054), NaOH (Sigma, S8045-500G), DMSO (Sigma, 471267-11), Nle, Phe-Melanocyte Stimulating Hormone (Sigma, M-8764), melanin (Sigma, M-0418), BCA-COPPER (SIGMA, B9643 and C2284), BSA (SIGMA, P0914) B) Test to Study Anti-Oxidizing Capability Using Chemiluminescence (Photochem Analytic Jena) Principle

[2] = Log P (octanol/water partition coefficient); format: physicochemical
From the text: Log P, also called Log Kow, is a measurement of the differential solubility of chemical compounds in two solvents (octanol/water partition coefficient).
Log P is equal to the logarithm of the ratio of the concentrations of the examined substance in octanol and in water. Log P=Log(Coct/Cwater). With this value it is possible to assess the hydrophilic or hydrophobic (lipophilic) nature of a molecule. If Log P is positive and very high, this means that the molecule under consideration is much more soluble in octanol than in water, which reflects its lipophilic nature, and conversely. A value of Log P=0 means that the molecule is distributed equally between the two phases and Coct=Cwater (C. Hansch, J. F. Quinlan, G. L. Lawrence, Linear free energy relationship between partition coefficients and the aqueous solubility of organic liquids, J. Org. Chem., 33 (1968), 347-350; C. Hansch, A. Leo, Exploring QSAR—Fundamentals and Applications in Chemistry and Biology, American Chemical Society, Washington, 1995; J. Sangster, Octanol—Water Partition Coefficients: Fundamentals and Physical Chemistry, Wiley, Chichester, 1997; W. Jorgensen, E. Duffy, Advanced Drug Delivery Reviews, (54), 2002, 355-366).

[3] = Test to study anti-oxidizing capability using chemiluminescence (Photochem Analytic Jena); format: biochemical; details: quantity of sample needed for activity equivalent to 1 μg Trolox, superoxide anion trapping
Method: This test is used to determine the anti-oxidizing capability of the molecules. It is a method which generates free radicals via photochemical signal. The intensity of oxidation is 1000 times higher than obtained under normal conditions.
Detection is performed using chemiluminescence. This allows evaluation of water-soluble and liposoluble antioxidant molecules or extracts
The results are expressed in equivalent quantity of vitamin C or Trolox (6-hydroxy-2,5,7,8-tetramethylchroman-2-carboxylic acid) respectively. Sensitivity is in the order of one nanomole.
The anti-oxidizing activity studied in this test represents the capability of specifically trapping superoxide anions by chemiluminescence.
The quantified results are expressed in Trolox equivalent (standard) or in “μg of product per 1 μg of Trolox”. This means that a quantity x of sample is needed to obtain activity equivalent to the activity detected with 1 μg of standard. It is the antioxidizing power in relation to a reference; this avoids having to take into account the concentrations tested.
The superoxide radical: O2^∘^− is generated by photochemical reaction: L+hv(UV)+O2→L*O2→L^∘^++O2^∘^− • L*: luminol in the excited state L^∘+: luminol radical Signal Detection
Part of the superoxide anions are inhibited by the antioxidants. The remaining free radicals are quantified by chemiluminescence. L^∘^++O2^∘^−→N2+AP*^2−→AP^2−+hv (luminescence)
AP*^2−: aminophthalate in the excited state

| Compound | logP [2] | Activity (scale for interpretation of results) [1] | μg sample per 1 μg of Trolox [3] | further results |
| --- | --- | --- | --- | --- |
| O=C(O)CCCC[C@@H]1CCSS1 (racemic) [Lipoic acid] | – | none | – | – |
| Cc1cc(C(C)(C)C)c(O)c(C(C)(C)C)c1 [BHT] | – | good (3.01 to 50) | – | – |
| N[C@@H](CS)C(=O)O [Cystein] | – | average (50.1 to 1000) | – | – |
| CCCCCCCCCCCCN1C2=C(C(=O)CC(C(C)C)C2)C(c2ccc(O)c(OC)c2)C2=C1CC(C(C)C)CC2=O (centres unmarked) [Example 9, 10-dodecyl-9-(4-hydroxy-3-methoxyphenyl)-3,6-diisopropyl-3,4,6,7,9,10-hexahydroacridine-1,8(2H,5H)-dione] | > 5 | – | 1.57 μg sample per 1 μg of Trolox | activation at 10 µM (B16-F10 cells): -49% |
| O=C1O[C@H]([C@@H](O)CO)C(O)=C1O [Vitamin C] | – | very good (0.1 to 3.0) | – | – |
| Albumin | – | poor (>1000) | – | – |

More lines, main results first:

| logP [2] | Compound | Activity (scale for interpretation of results) [1] | μg sample per 1 μg of Trolox [3] | further results |
| --- | --- | --- | --- | --- |
| 6.3 | CCCCCCCCCCCCN1C2=C(C(=O)CC(C)(C)C2)C(c2ccc(O)c(OC)c2)C2=C1CC(C)(C)CC2=O [Example 1, 10-dodecyl-9-(4-hydroxy-3-methoxyphenyl)-3,3,6,6-tetramethyl-3,4,6,7,9,10-hexahydroacridine-1,8(2H,5H)-dione] | – | 2.45 μg sample per 1 μg of Trolox | activation at 2 µM (B16-F10 cells; at 2 μM): -40% |
| 5.21 | CCCCCCCCCCN1C2=C(C(=O)CC(C)(C)C2)C(c2ccc(O)c(O)c2)C2=C1CC(C)(C)CC2=O [Example 3, 10-decyl-9-(3,4-dihydroxyphenyl)-3,3,6,6-tetramethyl-3,4,6,7,9,10-hexahydroacridine-1,8(2H,5H)-dione] | – | 0.015 μg sample per 1 μg of Trolox | activation at 20 µM (B16-F10 cells): -46% |
| 5.34 | CCCCCCCCCCN1C2=C(C(=O)CC(C)(C)C2)C(c2cc(OC)c(O)c(OC)c2)C2=C1CC(C)(C)CC2=O [Example 7, 10-decyl-9-(4-hydroxy-3,5-dimethoxyphenyl)-3,3,6,6-tetramethyl-3,4,6,7,9,10-hexahydroacridine-1,8(2H,5H)-dione] | – | 0.81 μg sample per 1 μg of Trolox | activation at 10 µM (B16-F10 cells): -56% |
| > 5 | CCCCCCCCCCCCN1C2=C(C(=O)CC(C)(C)C2)C(c2cc(C(C)(C)C)c(O)c(C(C)(C)C)c2)C2=C1CC(C)(C)CC2=O [Example 8, 10-dodecyl-9-(3,5-di-tert-butyl-4-hydroxyphenyl)-3,3,6,6-tetramethyl-3,4,6,7,9,10-hexahydroacridine-1,8(2H,5H)-dione] | – | 62 μg sample per 1 μg of Trolox and 61.9 μg sample per 1 μg of Trolox | activation at 20 µM (B16-F10 cells): -46% |

— US9493421B2, “Acridinedione derivatives for treating pigmentation disorders and ageing of the skin” (PIERRE FABRE DERMO-COSMETIQUE, priority 2011, dated 2016)
